According to US20260256752A1, “HIGHLY WATER SOLUBLE SCHIFF BASE PRODRUGS OF BENZALDEHYDE ALLOSTERIC MODULATORS” (ILLEXCOR HOLDINGS, LLC, priority 2022, published 2026):
“Also recorded” adds a separate entry of the source.

How the values were obtained:
[1] = Single-dose oral pharmacokinetics in rats; assay type: in vivo, male Sprague Dawley (SD) rats; conditions: rat whole blood; single oral dose 100 mg/kg
Description: Single-dose pharmacokinetics (PK) in male Sprague Dawley (SD) rats (n=4) were assessed for each compound, and the maximum or peak whole blood concentration and area under the curve are shown in Table 5.
Single doses of each compound were administered as oral suspensions by gavage in 0.5% carboxy methylcellulose at 100 mg/kg. Whole blood levels were collected for at least 72 hours after dose administration. Bioanalyses were performed with liquid chromatography-tandem mass spectrometry […].

[2] = tested on: blood suspensions from humans with homozygous SCD; test: Oxygen-independent sickle inhibition under anoxia (100% nitrogen) in SS blood suspensions; assay type: cell-based, human
Description: All compounds (Comp 1-13) and comparator molecules (VZHE-039, PP-14, INN-310, and Voxelotor) were evaluated following established procedures (Abdulmalik et al., 2005, 2020; Pagare et al., 2020). Blood samples from individual donors with homozygous SCD (obtained with informed consent) were diluted using Hemox buffer solution with the addition of glucose (10 mM) and BSA (0.2%) to adjust hematocrit of the blood suspensions to 20%, which standardizes the procedure to normalize the ratio of RBCs to drug, for assay consistency and reproducibility. Briefly, blood suspensions were incubated under room air in the presence of various concentrations of test compounds (0-2 mM) at 37° C. for 1 hour in 96-well round bottom plates. Subsequently, the suspensions were incubated with a hypoxic gas mixture (2.5% Oxygen gas/balance Nitrogen gas) at 37° C. for up to 2 hours prior to fixation with 2% glutaraldehyde solution without exposure to air. The fixated blood aliquots were evaluated by microscopic morphological analysis (image analysis on Image J software) to identify the proportion of sickled and non-sickled RBCs, and sickle inhibition calculated based on the % change from negative control (DMSO).
To establish oxygen-independent sickle inhibition, the incubation chamber was subsequently opened and exposed to room air for 15 minutes to ensure complete re-oxygenation and reversal of the sickled cells to normal round cells. Reversal was confirmed by microscopy. The incubation chamber was then closed, and the assay was repeated with incubation in 100% nitrogen gas for 1 hour (for screening), or up to 2.5 h (for time-course studies), with collection and fixation of blood aliquots at defined intervals. Aliquot samples were again subjected to microscopic morphological analysis of bright field images to identify the proportion of sickled and non-sickled cells, and sickle inhibition calculated.

[3] = 14-day repeat-dose safety (clinical observations, histopathology) in rats; assay type: in vivo, male and female SD rats; conditions: for safety in non-clinical toxicology (in words): above anticipated therapeutic drug levels; for clinical or histopathologic changes after 14 days of exposure: rats, oral 100 mg/kg once daily for 14 days
Description: (§1) Repeat oral doses of each compound were administered by oral gavage for 14 days to male and female SD rats (n=3). […] Steady state exposures for the final dosing interval on Day 14 were similar to total compound exposure from single-dose PK.
(§2) Repeat doses of each compound were administered once daily as oral suspensions by gavage in 0.5% carboxy methylcellulose for 14 days at 100 mg/kg. Whole blood was collected at 7 time-points for up to 24 hours during the final dosing interval on Day 14. Clinical observations, body weights, and food consumption were recorded throughout the 14 day study. Clinical chemistry and hematologic parameters were assessed, and histopathology was performed on organs after 14 days of exposure to study drug.

[4] = ADME / bioavailability assessment
Hb = target: T1, Hb (Homo sapiens, UniProt P69905); test: Occupancy/dose-dependent p50 shift in human non-sickle blood; assay type: biochemical; conditions: compared to Voxelotor at equivalent drug-Hb occupancy levels
T1 construct: as separate independent studies with non-sickle blood; from tissue; host or cells: non-sickling AA blood (red blood cells)
Description: Non-sickling human blood was incubated with test compounds at 0.25-2 mM concentrations at 37° C. for 1 hour in 96-well round bottom plates. At conclusion, RBCs were washed once with PBS, followed by lysis with deionized water. Approximately 100 μl aliquots of individual lysates were added to 3 mL of 0.1M potassium phosphate buffer, pH 7.0 in a cuvette and subjected to hemoximetry analysis using a Hemox™ Analyzer (TCS Scientific Corp.) as previously described. (Abdulmalik et al., 2020; Pagare et al., 2020) Change in p50 values (Δp50) was calculated by subtracting the p50 values of treated samples from the value of the control sample and expressing the difference as a percentage of control p50 values.

[5] = 14-day repeat-dose oral pharmacokinetics in rats; assay type: in vivo, male and female SD rats; conditions: oral 100 mg/kg for 14 days, Day 14
Description: as §1, §2

[6] = most patients with SCD; cited from earlier work
[7] = female rats, read-out: Cmax [μM] female
[8] = male rats, read-out: Cmax [μM] male

T1 sequence (P69905 2-142 limits assumed): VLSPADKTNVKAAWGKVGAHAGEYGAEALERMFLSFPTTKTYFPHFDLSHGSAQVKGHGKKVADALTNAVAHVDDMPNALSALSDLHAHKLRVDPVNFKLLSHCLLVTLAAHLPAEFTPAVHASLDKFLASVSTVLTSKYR
T1 sequence (P68871 2-147 partner limits assumed): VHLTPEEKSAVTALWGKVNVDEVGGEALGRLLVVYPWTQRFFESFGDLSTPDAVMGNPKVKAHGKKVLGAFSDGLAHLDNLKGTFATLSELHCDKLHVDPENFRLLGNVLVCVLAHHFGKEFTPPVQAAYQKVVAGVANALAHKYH

SMILES	AUC0-∞ [μM*h] [1]	Cmax [1] [µM]	polymer destabilizing effects / sickle inhibition in anoxia (in words) [2]	AUC0-∞ [μM*h] female ([5]; female rats)	Cmax [5, 7] [µM]	AUC0-∞ [μM*h] male ([5]; male rats)	Cmax [5, 8] [µM]	further results
O=Cc1c(O)cccc1OCc1cncc(F)c1 [Comp 4, 2-((5-fluoropyridin-3-yl)methoxy)-6-hydroxybenzaldehyde]	3,360 μM*h	242	–	–	–	–	–	–
O=Cc1c(OCc2cccnc2)ccc(F)c1O [Comp 12, 3-fluoro-2-hydroxy-6-(pyridin-3-ylmethoxy)benzaldehyde]	–	–	significantly reduced the potency of polymer inhibition	–	–	–	–	–
O=Cc1c(F)cc(F)cc1OCc1ncccc1F [Comp 13, 2,4-difluoro-6-((3-fluoropyridin-2-yl)methoxy)benzaldehyde]	–	–	completely negates the polymer destabilization effects	–	–	–	–	–
O=Cc1c(O)cccc1OCc1ncccc1F [Comp 5, 2-((3-fluoropyridin-2-yl)methoxy)-6-hydroxybenzaldehyde]	12,047 μM*h	348	–	20,566 μM*h	993	17,073 μM*h	854	safety in non-clinical toxicology (in words) [3]: without hepatotoxicity; clinical or histopathologic changes after 14 days of exposure [3]: No clinical or histopathologic changes; absorption, distribution, metabolism and elimination (ADME) properties (in words) [4]: acceptable absorption, distribution, metabolism and elimination (ADME) properties without metabolic lability; changes in p50 of Hb in human blood (in words) (Hb): relatively weak changes in p50
O=Cc1c(O)cccc1OCc1cccc(CO)n1 [VZHE-039, reference compound]	8,782 μM*h	394	–	12,188 μM*h	894	11,585 μM*h	753	clinical or histopathologic changes after 14 days of exposure [3]: Both clinical and histopathologic changes in the liver, including hepatocyte necrosis
CC(C)n1nccc1-c1ncccc1COc1cccc(O)c1C=O [Voxelotor, reference compound]	–	–	did not demonstrate any sickle inhibition	7,617 μM*h	548	6,760 μM*h	422	increase in Hb concentrations [6]: at least 1 g/dl
O=Cc1c(F)cc(F)cc1OCc1ccccn1 [Comp 9, 2,4-difluoro-6-(pyridin-2-ylmethoxy)benzaldehyde]	–	–	completely negates the polymer destabilization effects	–	–	–	–	–
O=Cc1c(O)cccc1OCc1cccnc1F [Comp 6, 2-((2-fluoropyridin-3-yl)methoxy)-6-hydroxybenzaldehyde]	–	49	–	–	–	–	–	AUC0-∞ [1]: 728 µM·h
O=Cc1c(O)cccc1OCc1ccccn1 [Comp 2, 2-hydroxy-6-(pyridin-2-ylmethoxy)benzaldehyde]	19,822 μM*h	958	most potent polymer destabilizers discovered to date; also recorded: most potent and sustained polymer destabilizing effects observed to date	21,547 μM*h	1110	20,363 μM*h	1110	safety in non-clinical toxicology (in words) [3]: without hepatotoxicity; clinical or histopathologic changes after 14 days of exposure [3]: No clinical or histopathologic changes; absorption, distribution, metabolism and elimination (ADME) properties (in words) [4]: acceptable absorption, distribution, metabolism and elimination (ADME) properties without metabolic lability; changes in p50 of Hb in human blood (in words) (Hb): relatively weak changes in p50; Cmax (ng/ml) female ([5]; female rats): 254,382 ng/ml
COc1ccc(OCc2ccccn2)c(C=O)c1 [INN-310, reference compound]	–	–	only weak potency in anoxia	–	–	–	–	–
O=Cc1c(O)cccc1OCc1ccccc1 [Reference A, 2-(benzyloxy)-6-hydroxybenzaldehyde, reference compound]	–	–	exhibits potent polymer destabilizing effects	–	–	–	–	bioavailability (in words) [4]: not bioavailable
O=Cc1c(O)cccc1OCc1cccnc1 [Comp 1, 2-hydroxy-6-(pyridin-3-ylmethoxy)benzaldehyde]	17,415 μM*h	919	most potent polymer destabilizers discovered to date; also recorded: most potent and sustained polymer destabilizing effects observed to date	8,085 μM*h	534	10,490 μM*h	703	safety in non-clinical toxicology (in words) [3]: without hepatotoxicity; clinical or histopathologic changes after 14 days of exposure [3]: No clinical or histopathologic changes; absorption, distribution, metabolism and elimination (ADME) properties (in words) [4]: acceptable absorption, distribution, metabolism and elimination (ADME) properties without metabolic lability; changes in p50 of Hb in human blood (in words) (Hb): relatively weak changes in p50

Now from value to compound, other results behind:

AUC0-∞ [μM*h] [1]	Cmax [1] [µM]	SMILES	polymer destabilizing effects / sickle inhibition in anoxia (in words) [2]	AUC0-∞ [μM*h] female ([5]; female rats)	Cmax [5, 7] [µM]	AUC0-∞ [μM*h] male ([5]; male rats)	Cmax [5, 8] [µM]	further results
1,022 μM*h	76	O=Cc1c(O)cccc1OCc1ncccc1Cl [Comp 8, 2-((3-chloropyridin-2-yl)methoxy)-6-hydroxybenzaldehyde]	–	–	–	–	–	–
3,011 μM*h	157	O=Cc1c(O)cccc1OCc1cncnc1 [Comp 10, 2-hydroxy-6-(pyrimidin-5-ylmethoxy)benzaldehyde]	–	–	–	–	–	–
